According to patent US20240208992A1, “MACROCYCLES AS CFTR MODULATORS” (Idorsia Pharmaceuticals Ltd, priority 2021, published 2024):

Target: human F508del-CFTR (Homo sapiens, UniProt P13569, DEL508-508)
Test: F508del-CFTR cell surface expression (corrector activity), DiscoveRx ß-galactosidase complementation chemiluminescence assay in recombinant U2OS cell line;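 also: U2OS cells co-expressing ProLink-tagged F508del-CFTR and a membrane-anchored enzyme acceptor, where more surface CFTR restores β-galactosidase activity measured by chemiluminescence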
[1] = U2OS, in relation to the Emax of the corrector lumacaftor (=100%), U2OS cell line, 16h compound incubation, arithmetic mean values
[2] = EC50, F508del-CFTR cell surface expression, U2OS cell line, 16h compound incubation, geomean values
[3] = U2OS, in relation to Emax of corrector lumacaftor (=100%), arithmetic mean values
[4] = EC50, F508del-CFTR cell surface expression, U2OS cells, 16h compound incubation, geomean values
[5] = in relation to Emax of corrector lumacaftor (=100%), arithmetic mean values

Chain of human F508del-CFTR (P13569 with tags, fused parts or gaps DEL508-508): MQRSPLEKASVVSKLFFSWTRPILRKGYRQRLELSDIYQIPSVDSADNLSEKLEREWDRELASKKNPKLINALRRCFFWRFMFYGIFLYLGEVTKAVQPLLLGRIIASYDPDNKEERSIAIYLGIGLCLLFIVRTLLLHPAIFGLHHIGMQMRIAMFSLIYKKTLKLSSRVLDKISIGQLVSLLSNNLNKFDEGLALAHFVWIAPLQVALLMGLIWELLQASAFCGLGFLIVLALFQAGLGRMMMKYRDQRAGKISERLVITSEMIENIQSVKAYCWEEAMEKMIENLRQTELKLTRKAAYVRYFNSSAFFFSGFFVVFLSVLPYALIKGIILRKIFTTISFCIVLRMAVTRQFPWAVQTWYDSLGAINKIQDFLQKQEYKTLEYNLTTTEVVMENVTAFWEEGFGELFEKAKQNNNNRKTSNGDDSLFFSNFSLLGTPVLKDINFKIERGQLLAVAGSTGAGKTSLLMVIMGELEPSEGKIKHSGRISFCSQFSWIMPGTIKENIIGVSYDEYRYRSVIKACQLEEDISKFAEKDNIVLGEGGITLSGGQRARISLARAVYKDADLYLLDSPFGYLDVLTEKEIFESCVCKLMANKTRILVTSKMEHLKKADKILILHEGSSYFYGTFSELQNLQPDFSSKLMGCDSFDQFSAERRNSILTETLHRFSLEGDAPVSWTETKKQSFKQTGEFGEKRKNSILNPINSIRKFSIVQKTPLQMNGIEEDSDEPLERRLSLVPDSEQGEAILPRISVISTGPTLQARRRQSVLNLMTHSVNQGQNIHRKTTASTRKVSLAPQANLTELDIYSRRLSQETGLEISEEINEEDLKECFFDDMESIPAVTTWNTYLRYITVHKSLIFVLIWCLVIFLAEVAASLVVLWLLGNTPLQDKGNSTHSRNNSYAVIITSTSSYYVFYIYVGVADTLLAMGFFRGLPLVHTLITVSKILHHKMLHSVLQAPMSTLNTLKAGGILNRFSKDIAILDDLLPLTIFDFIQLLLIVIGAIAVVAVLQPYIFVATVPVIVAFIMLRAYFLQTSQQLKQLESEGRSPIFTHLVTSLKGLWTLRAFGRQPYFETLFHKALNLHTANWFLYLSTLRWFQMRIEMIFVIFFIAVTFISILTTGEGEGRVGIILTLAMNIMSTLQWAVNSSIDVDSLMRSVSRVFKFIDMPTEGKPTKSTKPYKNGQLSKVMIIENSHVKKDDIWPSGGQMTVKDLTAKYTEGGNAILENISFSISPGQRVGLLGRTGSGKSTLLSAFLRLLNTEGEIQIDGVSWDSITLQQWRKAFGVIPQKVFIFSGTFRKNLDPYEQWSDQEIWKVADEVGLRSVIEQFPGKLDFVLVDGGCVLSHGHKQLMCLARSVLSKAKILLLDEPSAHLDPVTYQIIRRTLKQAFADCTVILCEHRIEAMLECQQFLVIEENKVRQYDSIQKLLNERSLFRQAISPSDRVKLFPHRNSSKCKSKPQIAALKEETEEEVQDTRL

SMILES	Emax [1] [%]	EC50 [2] [nM]	Emax [3] [%]	EC50 [4] [nM]	further results
COc1cccc(CCNC(=O)[C@@H]2CC(=O)N(C)[C@@H](CC3CCCCC3)C(=O)N(CCC3CCCCC3)CC(=O)N[C@H](Cc3ccccc3)COc3ccc4ccccc4c3C(=O)N2)c1 (racemic) [Example 301, (3RS,7S,13R)-13-benzyl-9-(2-cyclohexylethyl)-7-(cyclohexylmethyl)-N-(3-methoxyphenethyl)-6-methyl-1,5,8,11-tetraoxo-1,2,3,4,5,6,7,8,9,10,11,12,13,14-tetradecahydronaphtho[1,2-p][1]oxa[4,7,10,14]tetraazacycloheptadecine-3-carboxamide]	202	–	–	–	–
COc1cccc(CCNC(=O)[C@@H]2CC(=O)N(C)[C@@H](CC3CCC3)C(=O)N(CCC3CCCCC3)CC(=O)N[C@H](Cc3ccccc3)COc3ccc4ccccc4c3C(=O)N2)c1 (racemic) [Example 302, (3RS,7S,13R)-13-benzyl-7-(cyclobutylmethyl)-9-(2-cyclohexylethyl)-N-(3-methoxyphenethyl)-6-methyl-1,5,8,11-tetraoxo-1,2,3,4,5,6,7,8,9,10,11,12,13,14-tetradecahydronaphtho[1,2-p][1]oxa[4,7,10,14]tetraazacycloheptadecine-3-carboxamide]	193	106	–	–	–
COc1cccc(CCNC(=O)[C@@H]2CC(=O)N(C)[C@@H](CC(C)C)C(=O)N(CCC3CCCCC3)CC(=O)N[C@H](Cc3ccccc3)COc3ccc4ccccc4c3C(=O)N2)c1 (racemic) [Example 303, (3RS,7S,13R)-13-benzyl-9-(2-cyclohexylethyl)-7-isobutyl-N-(3-methoxyphenethyl)-6-methyl-1,5,8,11-tetraoxo-1,2,3,4,5,6,7,8,9,10,11,12,13,14-tetradecahydronaphtho[1,2-p][1]oxa[4,7,10,14]tetraazacycloheptadecine-3-carboxamide]	275	180	–	–	–
COc1cccc2c1C(=O)N[C@H](C(=O)NCCc1ccc3c(c1)OCO3)CC(=O)N(C)[C@@H](CC(C)C)C(=O)N(CC[C@H]1CCCCO1)CC(=O)N[C@H](Cc1ccccc1)CO2 (racemic) [Example 304, (3R,9S,13S)-N-(2-(benzo[d][1,3]dioxol-5-yl)ethyl)-3-benzyl-9-isobutyl-16-methoxy-10-methyl-5,8,11,15-tetraoxo-7-(2-((RS)-tetrahydro-2H-pyran-2-yl)ethyl)-2,3,4,5,6,7,8,9,10,11,12,13,14,15-tetradecahydrobenzo[p][1]oxa[4,7,10,14]tetraazacycloheptadecine-13-carboxamide]	193	581	–	–	–
COc1cccc(CCNC(=O)[C@@H]2CC(=O)N(C)[C@@H](CC(C)C)C(=O)N(CC[C@H]3CCCCO3)CC(=O)N[C@H](Cc3ccccc3)COc3cccc(OC)c3C(=O)N2)c1 (racemic) [Example 310]	202	788	–	–	–
COc1cccc(CCNC(=O)[C@@H]2CC(=O)N(C)[C@@H](CC(C)C)C(=O)N(C)[C@@H](CO)C(=O)N[C@H](Cc3ccccc3)COc3ccc4ccccc4c3C(=O)N2)c1 (racemic) [Example 718, (3S,7S,10RS,13R)-13-benzyl-10-(hydroxymethyl)-7-isobutyl-N-(3-methoxyphenethyl)-6,9-dimethyl-1,5,8,11-tetraoxo-1,2,3,4,5,6,7,8,9,10,11,12,13,14-tetradecahydronaphtho[1,2-p][1]oxa[4,7,10,14]tetraazacycloheptadecine-3-carboxamide]	–	–	272	–	–
Cc1cc(CCNC(=O)[C@@H]2CC(=O)N(C)[C@@H](CC(C)C)C(=O)N(C)[C@@H](COC(C)(C)C)C(=O)N[C@H](Cc3ccccc3)COc3ccc4ccccc4c3C(=O)N2)on1 (racemic) [Example 719, (3S,7S,10RS,13R)-13-benzyl-10-(tert-butoxymethyl)-7-isobutyl-6,9-dimethyl-N-(2-(3-methylisoxazol-5-yl)ethyl)-1,5,8,11-tetraoxo-1,2,3,4,5,6,7,8,9,10,11,12,13,14-tetradecahydronaphtho[1,2-p][1]oxa[4,7,10,14]tetraazacycloheptadecine-3-carboxamide]	–	–	313	124	–
Cc1cc(CCNC(=O)[C@@H]2CC(=O)N(C)[C@@H](CC(C)C)C(=O)N(C)[C@@H](CO)C(=O)N[C@H](Cc3ccccc3)COc3ccc4ccccc4c3C(=O)N2)on1 (racemic) [Example 720, (3S,7S,10RS,13R)-13-benzyl-10-(hydroxymethyl)-7-isobutyl-6,9-dimethyl-N-(2-(3-methylisoxazol-5-yl)ethyl)-1,5,8,11-tetraoxo-1,2,3,4,5,6,7,8,9,10,11,12,13,14-tetradecahydronaphtho[1,2-p][1]oxa[4,7,10,14]tetraazacycloheptadecine-3-carboxamide]	–	–	24	881	–
Cc1nc2ccc3c(c2o1)C(=O)N[C@H](C(=O)NCCc1cccc([C@H](C)O)c1)CC(=O)N(C)[C@@H](CC(C)C)C(=O)N(CCC1CCCCC1)CC(=O)N[C@H](Cc1ccccc1)CO3 (racemic) [Example 728, (8R,14S,18S)-8-benzyl-12-(2-cyclohexylethyl)-N-(3-((RS)-1-hydroxyethyl)phenethyl)-14-isobutyl-2,15-dimethyl-10,13,16,20-tetraoxo-7,8,9,10,11,12,13,14,15,16,17,18,19,20-tetradecahydrooxazolo[4′,5′:5,6]benzo[1,2-p][1]oxa[4,7,10,14]tetraazacycloheptadecine-18-carboxamide]	–	–	232	235	–
COc1nccc2c1C(=O)NC(C(=O)NCCc1cc(C3CC3)no1)CC(=O)N(C)C(CC(C)C)C(=O)N(C)C(CC1CCC(F)(F)CC1)C(=O)NC(Cc1ccccc1)CO2 (single isomer, unassigned) [Example 661]	–	–	–	421	Emax [5]: 247%
COc1nccc2c1C(=O)NC(C(=O)NCCc1cc(C3CC3)no1)CC(=O)N(C)C(CC(C)C)C(=O)N(C)C(CC1CCC(F)(F)CC1)C(=O)NC(Cc1ccccc1)CO2 (single isomer, unassigned) [Example 662]	–	–	–	124	Emax [5]: 297%
COc1nccc2c1C(=O)N[C@H](C(=O)NCCc1cc(C3CC3)no1)CC(=O)N(C)[C@@H](CC(C)C)C(=O)N1CCC3(CC3)C[C@@H]1C(=O)N[C@H](Cc1ccccc1)CO2 (single isomer, unassigned) [Example 669, (7′S,11′S,17a′S,20′R)-20′-benzyl-N-(2-(3-cyclopropylisoxazol-5-yl)ethyl)-11′-isobutyl-4′-methoxy-10′-methyl-5′,9′,12′,18′-tetraoxo-5′,6′,7′,8′,9′,10′,11′,12′,14′,15′,17′,17a′,18′,19′,20′,21′-hexadecahydrospiro[cyclopropane-1,16′-dipyrido[2,1-f:3′,4′-p][1]oxa[4,7,10,14]tetraazacycloheptadecine]-7′-carboxamide]	–	–	230	856	–
COc1nccc2c1C(=O)N[C@H](C(=O)NCCc1cc(C3CC3)no1)CC(=O)N(C)[C@@H](CC(C)C)C(=O)N1CC[C@@H](c3ccccc3)C[C@H]1C(=O)N[C@H](Cc1ccccc1)CO2 (single isomer, unassigned) [Example 671]	–	–	179	235	–
CC(C)C[C@H]1C(=O)N2CC[C@H](c3ccccc3)C[C@H]2C(=O)N[C@H](Cc2ccccc2)COc2cnc3ccccc3c2C(=O)N[C@H](C(=O)NCCc2cc(C3CC3)no2)CC(=O)N1C (single isomer, unassigned) [Example 674]	–	–	133	262	–
COc1cc(CCNC(=O)[C@@H]2CC(=O)N(C)[C@@H](CC(C)C)C(=O)N3CCCC[C@@H]3C(=O)N[C@H](Cc3ccccc3)COc3ccc4ncc(F)cc4c3C(=O)N2)on1 (single isomer, unassigned) [Example 899]	–	–	–	–	EC50 (EC50, F508del-CFTR cell surface expression, U2OS cells, 16h compound incubation, geomean of several measurements): 819 nM; Emax (U2OS, in relation to the Emax of the corrector lumacaftor (=100%), U2OS cells, 16h compound incubation, arithmetic mean): 294%
CCC(=O)CCCCC[C@@H]1NC(=O)[C@H]2CCCCN2C(=O)[C@H]([C@@H](C)CC)NC(=O)[C@H](Cc2cn(OC)c3ccccc23)NC1=O [Apicidin, reference compound]	–	–	–	–	EC50 (EC50, recombinant U2OS cell line (DiscoveRx) expressing PK-tagged human F508del-CFTR, 16h compound incubation, same conditions as example compounds): > 20000 nM
CC(C)C[C@H]1C(=O)N(CCC2CCCCC2)CC(=O)N[C@H](Cc2ccccc2)COc2cc3c(cc2C(=O)N[C@H](C(=O)NCCc2ccc4c(c2)OCO4)CC(=O)N1C)OCO3 [Example 2, (7R,13S,17S)-N-(2-(benzo[d][1,3]dioxol-5-yl)ethyl)-7-benzyl-11-(2-cyclohexylethyl)-13-isobutyl-14-methyl-9,12,15,19-tetraoxo-6,7,8,9,10,11,12,13,14,15,16,17,18,19-tetradecahydro-[1,3]dioxolo[4′,5′:4,5]benzo[1,2-p][1]oxa[4,7,10,14]tetraazacycloheptadecine-17-carboxamide]	150	110	–	–	–
COc1cc2c(cc1OC)C(=O)N[C@H](C(=O)NCCc1ccc3c(c1)CCCO3)CC(=O)N(C)[C@@H](CC(C)C)C(=O)N(C)CC(=O)N[C@H](Cc1ccccc1)CO2 [Example 3, (3R,9S,13S)-3-benzyl-N-(2-(chroman-6-yl)ethyl)-9-isobutyl-17,18-dimethoxy-7,10-dimethyl-5,8,11,15-tetraoxo-2,3,4,5,6,7,8,9,10,11,12,13,14,15-tetradecahydrobenzo[p][1]oxa[4,7,10,14]tetraazacycloheptadecine-13-carboxamide]	151	816	–	–	–
COc1cc2c(cc1OC)C(=O)N[C@H](C(=O)NCCc1ccc3ccoc3c1)CC(=O)N(C)[C@@H](CC(C)C)C(=O)N(C)CC(=O)N[C@H](Cc1ccccc1)CO2 [Example 4, (3R,9S,13S)-N-(2-(benzofuran-6-yl)ethyl)-3-benzyl-9-isobutyl-17,18-dimethoxy-7,10-dimethyl-5,8,11,15-tetraoxo-2,3,4,5,6,7,8,9,10,11,12,13,14,15-tetradecahydrobenzo[p][1]oxa[4,7,10,14]tetraazacycloheptadecine-13-carboxamide]	195	673	–	–	–
